Columns and labels:
[1] = test system: symmetrical dimethylation of arginine (Di-Methyl Histone H4R3) in cell line TE11; assay: PRMT5 Biomarker Assay; format: cell-based; conditions: Homo sapiens, TE-11; TE11 cells, 72 h incubation, EpiQuik Global Di-Methyl Histone H4R3 ELISA, corrected for total protein
Description: (§1) Compounds of the invention may be tested for potency to inhibit symmetrical dimethylation of arginine in the following assay:
The cell line TE11 was seeded at a density of 12,000 cells per well in 96 well tissue culture plates in DME medium and 10% foetal bovine serum, and allowed to adhere overnight under standard culture conditions (37° C., 5% CO2). Compound dilutions prepared in DMSO were added to the medium, with negative control wells reserved for treatment with DMSO only and positive controls receiving a potent PRMT5 inhibitor. The concentration of the inhibitor had been previously determined to give maximum inhibition of the methylation. After incubation for 72 h, cells were washed twice in ice-cold PBS, lysed in lysis buffer (20 mM Tris pH 7.4, 135 mM NaCl, 1.5 mM MgCl2, 1 mM EGTA, 10% glycerol and 1% Triton-X100), centrifuged at 15,000×g and the supernatants collected for subsequent analysis. The methylation level was determined using the EpiQuik™ Global Di-Methyl Histone H4R3 Quantification ELISA Kit (Epigentek, Farmingdale, N.Y.) as per the manufacturer's recommendations; in parallel the total protein amount in the lysate was quantified using a Lowry protein assay. The methylation level was corrected for the total protein amount of each sample, normalised to the controls, and the data fitted against a four-parameter logistic model to determine the 50% inhibitory concentration (IC50).

[2] = molecular target: T1, Full-length PRMT5 enzyme co-expressed with MEP50 (Homo sapiens (Human), UniProt O14744); assay: Revised PRMT5 Biochemical Assay; conditions: 1 μM histone H4 derived peptide substrate, 1 μM S-Adenosyl methionine, 4 hours at 37 degree Celsius, Transcreener EPIGEN fluorescence polarisation
T1 sequence (O14744 whole entry): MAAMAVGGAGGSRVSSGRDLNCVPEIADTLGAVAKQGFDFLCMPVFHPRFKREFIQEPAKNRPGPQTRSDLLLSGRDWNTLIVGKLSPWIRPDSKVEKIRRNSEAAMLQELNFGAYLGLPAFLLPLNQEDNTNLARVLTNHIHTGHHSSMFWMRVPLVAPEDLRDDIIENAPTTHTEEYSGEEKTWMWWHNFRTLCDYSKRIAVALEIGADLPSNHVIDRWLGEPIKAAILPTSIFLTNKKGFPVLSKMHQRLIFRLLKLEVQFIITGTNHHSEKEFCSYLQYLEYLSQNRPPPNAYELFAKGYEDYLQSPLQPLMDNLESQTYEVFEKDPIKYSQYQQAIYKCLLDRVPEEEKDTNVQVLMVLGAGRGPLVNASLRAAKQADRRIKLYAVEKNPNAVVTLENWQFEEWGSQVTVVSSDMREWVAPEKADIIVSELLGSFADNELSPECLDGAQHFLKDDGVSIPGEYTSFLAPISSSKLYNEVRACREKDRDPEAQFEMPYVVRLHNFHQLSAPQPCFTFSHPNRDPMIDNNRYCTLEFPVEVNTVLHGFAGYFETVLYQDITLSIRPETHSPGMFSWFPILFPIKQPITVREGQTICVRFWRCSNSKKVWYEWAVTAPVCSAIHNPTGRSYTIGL
T1 sequence (Q9BQA1 whole entry partner): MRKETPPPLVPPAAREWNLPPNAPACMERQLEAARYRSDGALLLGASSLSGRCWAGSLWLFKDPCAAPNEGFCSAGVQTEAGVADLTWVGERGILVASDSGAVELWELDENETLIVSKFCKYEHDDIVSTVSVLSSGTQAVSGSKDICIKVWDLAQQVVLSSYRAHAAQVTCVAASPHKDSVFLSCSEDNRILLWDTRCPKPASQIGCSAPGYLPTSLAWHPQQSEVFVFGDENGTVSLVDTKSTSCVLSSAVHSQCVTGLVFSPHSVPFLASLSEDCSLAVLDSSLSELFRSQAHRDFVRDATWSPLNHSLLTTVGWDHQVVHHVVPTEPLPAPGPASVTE
Procedure, shortened: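 Full-length human PRMT5 co-expressed with His-MEP50 in insect cells (15 ng/reaction), 1 μM H4-derived peptide and 1 μM SAM in PBS/0.01% Tween-20/egg albumin/1 mM DTT, 4 h at 37 °C. SAH formation read by Transcreener EPIGEN fluorescence polarisation after 90 min detection. IC50 from four-parameter fit of plate-normalised % inhibition.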

[3] = molecular target: T1, Full-length PRMT5 enzyme co-expressed with MEP50; assay: PRMT5 Biochemical Assay; conditions: 200 nM histone H4 derived peptide substrate, 1 μM S-Adenosyl methionine, 4 hours at 37° C, Transcreener EPIGEN fluorescence polarisation
Description: Compounds of the invention may be tested for in vitro activity in the following assay: A histone H4 derived peptide is used as substrate (amino acid sequence: […]NH2). Full-length PRMT5 enzyme (NCBI Reference sequence NP-006100.2) was co-expressed with Hiss-MEP50 in insect cells and purified via Nickel immobilized metal affinity and gel filtration chromatography (“the enzyme”).
The 6 μL assay reactions are run in Greiner brand black 384-well low volume plates. All reactions contained assay buffer (phosphate buffered saline, 0.01% (v/v) Tween-20, 0.01% (w/v) albumin from chicken egg white, 1 mM dithiothreitol, 200 nM peptide substrate, 1 μM S-Adenosyl methionine, and 15 ng/reaction enzyme, with the enzyme being omitted from negative control reactions. Compounds were added in a volume of 100 nL from dilution series prepared in DMSO, positive and negative control reactions receiving the same volume DMSO without compound. The plates were sealed with adhesive seals and incubated for 4 hours at 37° C. Reaction progress was measured using the Transcreener™ EPIGEN methyltransferase assay (BellBrook Labs, Madison, Wis.) as recommended by the manufacturer. To each reaction 2 μL detection mix were added, containing coupling enzymes, fluorescence polarisation tracer, and AMP antibody. Plates were incubated for 90 min before being read on a PerkinElmer EnVision™ plate reader in fluorescence polarisation mode.

[4] = test system: symmetrical dimethylation of arginine (Di-Methyl Histone H4 Arginine 3) in cell line TE11; assay: Revised PRMT5 Biomarker Assay; conditions: Homo sapiens, TE-11; TE11 cells, 72 hours incubation, immunofluorescence, corrected for cell number (Hoechst 33342), plate reader based
Description: as §1
The cell line TE11 was seeded at a density of 6,000 cells per well in 96 well optical quality tissue culture plates in DME medium and 10% foetal bovine serum, and allowed to adhere for 5 hours under standard culture conditions (37 degree Celsius, 5% CO2). Compound dilutions prepared in DMSO were added to the medium, with negative control wells reserved for treatment with DMSO only and positive controls receiving a potent PRMT5 inhibitor compound at 1 μM concentration. After incubation for 72 hours, the cells were fixed with 3.7% formaldehyde in PBS for 30 minutes at room temperature, washed with phosphate buffer saline and blocked with Odyssey blocking buffer (LI-COR, Lincoln, Nebr.). Rabbit anti-Di-Methyl Histone H4 Arginine 3 specific antibody (Epigentek) in Odyssey blocking buffer was added and incubated for 14 hours at 4 degree Celsius. After washing, anti-rabbit secondary antibody labelled with Alexa647 dye (LifeTechnologies) and Hoechst 33342 (1 μg/mL, SigmaAldrich) were added for 1 hour incubation. Plates were washed and read on a PerkinElmer Envision 2103 in fluorescence intensity scanning mode (24 scans across the well area). The methylation level information was corrected for the number of cells as expressed by the Hoechst 33342 stain, converted to percent inhibition relative to controls on the same plate and the data fitted against a four-parameter logistic model to determine the 50% inhibitory concentration (IC50 plate-reader based). Alternatively, the plates were imaged on a PerkinElmer Phenix high content imaging platform. Using a Columbus image analysis pipeline, individual nuclei were located by Hoechst 33342 stain and the methylation level was calculated from the Alexa647-related intensity in the same area. The resulting mean intensity per cell was directly converted to percent inhibition as outlined above (IC50, imager based)).

Row | IC50 [1] | IC50 [2] | IC50 [3] | IC50 [4] | SMILES
1 | 19 nM | 163 nM | 95 nM | – | C[C@@H]1COCCN1C(=O)c1ccc(C(=O)NC[C@@H](O)CNC2Cc3ccccc3C2)cc1 [Compound 37, N—((S)-3-((2,3-Dihydro-1H-inden-2-yl)amino)-2-hydroxypropyl)-4-((R)-3-methylmorpholine-4-carbonyl)benzamide]
2 | 92 nM | – | 238 nM | – | Cn1cc(Oc2ccc(C(=O)NC[C@@H](O)CNC3Cc4ccccc4C3)cc2)cn1 [Compound 18, (S)-N-(3-((2,3-dihydro-1H-inden-2-yl)amino)-2-hydroxypropyl)-4-((1-methyl-1H-pyrazol-4-yl)oxy)benzamide]
3 | 259 nM | – | 301 nM | – | O=C(NC[C@@H](O)CNC1Cc2ccccc2C1)c1ccc(N2CCOCC2)nc1 [Compound 16, (S)-N-(3-((2,3-Dihydro-1H-inden-2-yl)amino)-2-hydroxypropyl)-6-morpholinonicotinamide]
4 | 7 nM | 281 nM | – | 0.361 µM | COc1cc(C(=O)N2CCOCC2)ccc1C(=O)NC[C@@H](O)CNC1Cc2ccccc2C1 [Compound 98, (S)-N-(3-((2,3-dihydro-1H-inden-2-yl)amino)-2-hydroxypropyl)-2-methoxy-4-(morpholine-4-carbonyl)benzamide]
5 | 1910 nM | – | 905 nM | – | O=C(NCC(O)CNC1CCc2ccccc2C1)c1ccc(Cl)cc1 (stereo not shown) [Compound 30, 4-Chloro-N-(2-hydroxy-3-((1,2,3,4-tetrahydronaphthalen-2-yl)amino)propyl)benzamide]
6 | 69 nM | – | 310 nM | – | O=C(NCC(O)CNC1Cc2ccccc2C1)c1ccc(C(=O)N2CCOCC2)cc1 (stereo not shown) [Compound 2, N-(3-((2,3-Dihydro-1H-inden-2-yl)amino)-2-hydroxypropyl)-4-(morpholine-4-carbonyl)benzamide]
7 | 363 nM | – | 425 nM | – | O=C(NCC(O)CNC1Cc2ccccc2C1)c1ccc(-c2ccccc2)cc1 (stereo not shown) [Compound 24, N-(3-((2,3-Dihydro-1H-inden-2-yl)amino)-2-hydroxypropyl)-[1,1′-biphenyl]-4-carboxamide]
8 | – | 40 nM | – | 0.012 µM | CCOc1cc(C(=O)N2CCOC[C@H]2C)ccc1C(=O)NC[C@@H](O)CNC1Cc2ccccc2C1 [Compound 123, N-((S)-3-((2,3-dihydro-1H-inden-2-yl)amino)-2-hydroxypropyl)-2-ethoxy-4-((R)-3-methylmorpholine-4-carbonyl)benzamide]
9 | – | 450 nM | – | 0.122 µM | CC(=O)N1CCC(Nc2cc(C(=O)NC[C@H](O)CNC3Cc4ccccc4C3)ccn2)CC1 [Compound 55, (R)-2-((1-Acetylpiperidin-4-yl)amino)-N-(3-((2,3-dihydro-1H-inden-2-yl)amino)-2-hydroxypropyl)isonicotinamide]
10 | – | 209 nM | – | 0.008 µM | CCOc1cc(C(=O)N2CCCC2)ccc1C(=O)NC[C@@H](O)CNC1Cc2ccccc2C1 [Compound 76, (S)-N-(3-((2,3-dihydro-1H-inden-2-yl)amino)-2-hydroxypropyl)-2-ethoxy-4-(pyrrolidine-1-carbonyl)benzamide]
11 | – | 137 nM | – | 0.002 µM | CCOc1cc(C(=O)N2C[C@H]3C[C@@H]2CO3)ccc1C(=O)NC[C@@H](O)CNC1Cc2ccccc2C1 [Compound 127, 4-((1R,4R)-2-oxa-5-azabicyclo[2.2.1]heptane-5-carbonyl)-N-((S)-3-((2,3-dihydro-1H-inden-2-yl)amino)-2-hydroxypropyl)-2-ethoxybenzamide]
12 | 336 nM | – | 263 nM | – | Cc1nonc1COc1ccc(C(=O)NC[C@H](O)CNC2Cc3ccccc3C2)cc1 [Compound 8, (R)-N-(3-((2,3-Dihydro-1H-inden-2-yl)amino)-2-hydroxypropyl)-4-((4-methyl-1,2,5-oxadiazol-3-yl)methoxy)benzamide]
13 | – | 196 nM | – | 0.01 µM | O=C(NC[C@@H](O)CNC1Cc2ccccc2C1)c1ccc(C(=O)N2CC3CCC(C2)O3)cc1 [Compound 105, 4-(8-oxa-3-azabicyclo[3.2.1]octane-3-carbonyl)-N-((S)-3-((2,3-dihydro-1H-inden-2-yl)amino)-2-hydroxypropyl)benzamide]
14 | 348 nM | – | 634 nM | – | Cn1cc(Oc2ccc(C(=O)NC[C@H](O)CNC3Cc4ccccc4C3)cc2)cn1 [Compound 13, (R)-N-(3-((2,3-Dihydro-1H-inden-2-yl)amino)-2-hydroxypropyl)-4-((1-methyl-1H-pyrazol-4-yl)oxy)benzamide]

Row | SMILES | IC50 [1] | IC50 [2] | IC50 [3] | IC50 [4]
15 | O=C(NCC(O)CNC1Cc2ccccc2C1)c1ccc(C(=O)N2C3CCC2COC3)cc1 (stereo not shown) [Compound 40, 4-(3-Oxa-8-azabicyclo[3.2.1]octane-8-carbonyl)-N-(3-((2,3-dihydro-1H-inden-2-yl)amino)-2-hydroxypropyl)benzamide] | 2 nM | – | 57 nM | 0.021 µM
16 | O=C(NC[C@@H](O)CNC1Cc2ccccc2C1)c1ccc(C(=O)N2C3CCC2COC3)cc1 [Compound 103, 4-(3-oxa-8-azabicyclo[3.2.1]octane-8-carbonyl)-N-((S)-3-((2,3-dihydro-1H-inden-2-yl)amino)-2-hydroxypropyl)benzamide] | – | 120 nM | – | 0.017 µM
17 | CCOc1cc(C(=O)N2C3CCC2COC3)ccc1C(=O)NC[C@@H](O)CNC1Cc2ccccc2C1 [Compound 77, 4-(3-oxa-8-azabicyclo[3.2.1]octane-8-carbonyl)-N-((S)-3-((2,3-dihydro-1H-inden-2-yl)amino)-2-hydroxypropyl)-2-ethoxybenzamide] | – | 29 nM | – | 0.0005 µM
18 | O=C(NC[C@@H](O)CNC1Cc2ccccc2C1)c1ccc(C(=O)N2C3CCC2COC3)cc1Cl [Compound 121, 4-(3-oxa-8-azabicyclo[3.2.1]octane-8-carbonyl)-2-chloro-N-((S)-3-((2,3-dihydro-1H-inden-2-yl)amino)-2-hydroxypropyl)benzamide] | – | 130 nM | – | 0.016 µM
19 | O=C(NC[C@@H](O)CNC1Cc2ccccc2C1)c1ccc(C(=O)N2C3CCC2COC3)cc1F [Compound 133, 4-(3-oxa-8-azabicyclo[3.2.1]octane-8-carbonyl)-N((S)-3-((2,3-dihydro-1H-inden-2-yl)amino)-2-hydroxypropyl)-2-fluorobenzamide] | – | 131 nM | – | 0.009 µM
20 | O=C(NC[C@@H](O)CNC1Cc2ccccc2C1)c1ccc(Cl)cc1 [Compound 14, (S)-4-Chloro-N-(3-((2,3-dihydro-1H-inden-2-yl)amino)-2-hydroxypropyl)benzamide] | 210 nM | – | 445 nM | –
